Assay results: patent publication US20150150935A1, “[…] RECEPTOR AGONISTS FOR REDUCING PAIN AND INFLAMMATION” (CARA THERAPEUTICS, INC., priority 2012, published 2015)

Key:
[1] = tested on: patients undergoing a laparoscopic hysterectomy; experiment: Phase 2 double-randomized placebo-controlled trial, CR845 dosed preoperatively and postoperatively, analgesic efficacy; assay type: in vivo, human
Procedure: This trial was a phase 2 multi-center, double-randomized, double-blind, placebo-controlled study was conducted to evaluate the analgesic efficacy and safety of intravenous CR845 dosed preoperatively and postoperatively in patients undergoing a laparoscopic hysterectomy. The trial was conducted under an investigational new drug application (IND) filed with the US Food and Drug Administration (FDA).
This phase 2 trial multi-center, double-randomized, double-blind, placebo-controlled study was conducted in 22 sites in the United States. All clinical procedures were approved by the relevant Institutional Review Board (IRB) in compliance with the applicable laws and regulations of the US. The study was initiated up to fourteen (14) days preoperatively and the in-hospital period was approximately twenty-four (24) hours for each patient and follow up was conducted within seven (7) days of discharge from the hospital.
The aim of this clinical trial was to evaluate the analgesic efficacy and safety of intravenous (IV) CR845 dosed preoperatively and postoperatively in female patients undergoing an elective laparoscopic hysterectomy. Secondary objectives were: 1. […] To evaluate the safety and tolerability of CR845.
This Phase 2, double-randomized, double-blind, placebo-controlled, parallel group study was conducted in approximately 200 female subjects, aged 18 to 65, across 22 US clinical sites. All subjects were administered a 15-minute IV infusion of 0.04 mg/kg CR845 or matching placebo before surgery in a 1:1 ratio. After surgery and upon reaching a pain intensity baseline level of at least 4 on a 10 cm visual analog scale (VAS), subjects were also re-randomized in a 1:1 ratio to receive a second IV infusion of either 0.04 mg/kg of CR845 or placebo. All doubly-randomized patients were thereby randomized to receive one of four possible treatment regimens: placebo-placebo, placebo-CR845, CR845-placebo, or CR845-CR845 (See FIG. 1). Pain intensity and pain relief scores were assessed up to 24 hours following the post-surgery infusion. Patients were allowed IV morphine for rescue at any point during the post-operative period, if requested.
The main efficacy endpoints were the total morphine consumption in the first 24 hours in patients who were re-randomized in the postoperative period and the efficacy of CR845 in reducing pain intensity including time specific VAS difference; summed pain intensity differences (SPIDs); area under the curve (AUC); pain relief; and the proportion of patients that were randomized to receive preoperative CR845 with no rescue medication postoperatively. The safety endpoints included the incidence of adverse events, physical examination, vital signs, 12-lead ECG, clinical laboratory evaluations, and cumulative fluid balance.

[2] = tested on: women after laparoscopic-assisted hysterectomy; conditions: cited from earlier work
[3] = tested on: patients post laparoscopic surgery; experiment: Adverse events in subjects treated with CR845 or placebo, Phase IIb trial; assay type: in vivo, human; conditions: first 24 hours post laparoscopic surgery; all CR845 treated groups; FIG. 15
Procedure: Data are from a Phase IIb clinical trial in which subjects were administered CR845 or placebo. Generalized pruritus was distinguished from local pruritus events and shown separately in FIG. 15. Adverse events were lower in all CR845 treated patient groups as compared with placebo treated patients.

Which “Reduction in summed pain intensity difference (SPID) pain score versus placebo only” value ([1]; CR845-CR845 (0.04 mg/kg IV before and after surgery), first 24 hours, FIG. 2) does the source give for CC(C)C[C@@H](NC(=O)[C@@H](Cc1ccccc1)NC(=O)[C@H](N)Cc1ccccc1)C(=O)N[C@H](CCCCN)C(=O)N1CCC(N)(C(=O)O)CC1 [CR845, D-Phe-D-Phe-D-Leu-D-Lys-[ω(4-aminopiperidine-4-carboxylic acid)]-OH] here?
Its value is “more than twice the reduction”.

What about the “Reduction in pain intensity difference (PID) pain score versus placebo only” value ([1]; CR845-CR845 (before and after surgery), over 24 hours, FIG. 3) of the same compound?
Its value is “twice the reduction”.

And the “Pain relief as judged by PID score” value ([1]; CR845 before and after surgery, among four groups)?
The value was “highest pain intensity difference”.

What about the “Patients' overall evaluation of pain relief as excellent” value ([1]; CR845 pretreatment groups (CR845-CR845, CR845-Placebo, CR845-None)) of the same compound?
Its value is “highest percentage of patients”.

What about the “Reduction in pain SPID scores” value ([1]; one dose of CR845, before or after surgery, first 24 hours, FIG. 2) of the same compound?
The value was “intermediate level of reduction”.

What about the “Reduction in pain PID scores” value ([1]; one dose of CR845, before or after surgery, first 24 hours, FIG. 3) of the same compound?
The value was “intermediate level of reduction”.

And the “Morphine self-administered by the patients” value ([1]; two doses of CR845, intervals 2-4, 4-12 and 12-24 hours post surgery, FIG. 4)?
The value was “least morphine”.

And the “Reduction of morphine use versus placebo” value ([2]; 0.04 mg/kg 15-minute IV infusion after surgery, first 16 hours post-infusion)?
The value was 32%.

And the “Opioid side effects (vomiting, nausea and pruritis)” value ([2]; 0.04 mg/kg IV after surgery, versus placebo)?
The value was “significant reduction”.

And the “Changes in clinical lab test results, vital signs, electrocardiograms, Ramsey sedation scale” value ([2]; 0.04 mg/kg IV after surgery)?
The value was “no significant changes”.

What about the “Reduction of pain intensity” value ([2]; administered after surgery) of the same compound?
Its value is “effective”.

What about the Safety and tolerability ([2]; administered after surgery) of the same compound?
The Safety and tolerability was “safe and well tolerated”.

And the “Tolerability in comparison to other known kappa agonists” value ([2]; single intravenous dose after surgery)?
Its value is “better tolerated”.

And the “Adverse events (nausea, vomiting and pruritus) compared with placebo” value [3]?
Its value is “lower”.
